Conditions: rat; liver microsomes; pH 7.4; 15.0 min; 1.0 µM

Compound	half-life
Cc1cccc(-n2c(C)cc(C=C(C#N)C#N)c2C)c1	1.64 min
O=C(Nc1ncc(Cc2ccc(C(F)(F)F)cc2)s1)c1cnc(-c2ccccc2)o1	> 30 min
COC(=O)CNC(=O)c1nc(-c2ccc(Cl)nc2)c2cnccn12	16.4 min
CC(=O)Nc1ccc(C(=O)Nc2ccccc2N)cc1	> 30 min
Cc1cn2nc(-c3nc(C4CCCN(C(=O)c5ccccc5)C4)no3)cc2c(=O)[nH]1 (centres undefined)	13.6 min
COc1ccc(OC)c(Nc2c3c(nc4ccccc24)CCC3)c1	1.5 min
COc1ccc2c(c1)/C(=C/c1cnc[nH]1)C(=O)N2	> 30 min
Cc1ccc2nc(-c3ccccn3)c(Nc3ccccc3C)n2c1	12.2 min
CNc1oc(-c2ccc(-c3ccccc3)cc2)nc1C#N	> 30 min
c1ccc2[nH]c(Nc3nc(-c4ccncc4)nc4ccccc34)nc2c1	13 min
N#Cc1ccccc1CSc1nc2ncc(Br)cc2[nH]1	6.6 min
CCOc1ccc(CCNC(=O)c2cc3sccc3n2Cc2ccccc2)c(F)c1OCC	1.8 min
Cc1ccc(S(=O)(=O)NCC(=O)Nc2nc(-c3ccccc3)cs2)cc1	2.1 min
CC#CC(=O)N1CCC[C@H]1c1nc(-c2ccc(C(=O)Nc3ccccn3)cc2)c2c(N)nccn12	19.4 min
CCOC(=O)c1ccc(-n2cnc3cc(C(=O)N4CCCCC4)ccc32)cc1	1.7 min
CCc1oc2ccccc2c1C(=O)c1cc(Br)c(O)c(Br)c1	9.75 min
O=C(Cc1ccc(Cl)c(Cl)c1)Nc1ccc(S(=O)(=O)Nc2ccccc2)cc1	4.2 min
COc1ccc(/C=C2/C(=O)Nc3ccccc32)cc1O	> 30 min
Nc1ncnc2c1c(-c1ccc(Oc3ccccc3)cc1)cn2C1CCCC1	10.9 min
NCC1CCC(C(=O)Oc2ccc(CCC(=O)O)cc2)CC1 (centres undefined)	> 30 min
COc1ccc(-n2nc(C3CCCN(C(=O)c4cccc(OC)c4)C3)[nH]c2=O)cc1 (centres undefined)	23.4 min
Cc1ccc2[nH]c(-c3ccccc3)cc(=O)c2c1	15.9 min
Fc1ccc(Nc2nc(-c3ccncc3Cl)nc3ccccc23)cc1F	19 min
CC(=O)c1c(C)[nH]c(C(=O)Nc2cccc(S(=O)(=O)N3CCOCC3)c2)c1C	17 min
O=C1CCCC2=C1C(c1[nH]ncc1Cl)N=C(Nc1nc3cc([S+](=O)([O-])N4CCCC4)ccc3o1)N2 (centres undefined)	8 min

Compound	half-life
CC(C)c1ccc(OCc2nc3c(n2Cc2ccccc2)C(=O)N(CC2CC2)CCN3)cc1	1.82 min
COc1c(C)c2c(c(O)c1C/C=C(\C)CCC(=O)OCCN1CCOCC1)C(=O)OC2	1 min
COc1ccc(-n2cnc3cc(C(=O)N4CCCCC4)ccc32)cc1	20.7 min
CC(=O)Nc1cccc(-c2csc(Nc3cc(C)ccn3)n2)c1	> 30 min
CC[C@@]1(O)C(=O)OCc2c1cc1n(c2=O)Cc2c-1nc1ccccc1c2CCNC(C)C	> 30 min
CCOc1ccc(-c2nnc(SCC(=O)NCc3ccccc3Cl)o2)cc1	3.32 min
CCc1ccc2oc(NC3=NC(c4[nH]ncc4Cl)C4=C(CCCC4=O)N3)nc2c1 (centres undefined)	22 min
NC(=O)C1CCN(c2nc(-c3ccc(N)cc3)cs2)CC1	> 30 min
CCOC(=O)C1=C(CN(CC)Cc2ccccc2)NC(=O)NC1c1ccc(OC(C)C)cc1 (centres undefined)	1.2 min
CCc1ccc(C(=O)Nc2cc(CN3CCN(C)CC3)cc(C(F)(F)F)c2)cc1C#Cc1cnc2ccnn2c1	> 30 min
COc1cc(Nc2nc(-c3ccncc3)nc3ccccc23)ccc1Cl	12 min
COc1cc(Nc2nc(-c3ccncc3)nc3ccccc23)ccc1N1CCN(C)CC1	11 min
NC(=O)C(=O)N/N=C/c1ccc([N+](=O)[O-])o1	> 30 min
O=C(CCc1ccccc1)Nc1ccc(S(=O)(=O)Nc2nccs2)cc1	> 30 min
O=c1[nH]c(N2CCOCC2)nc2c1CCN(Cc1cc(Cl)ccc1F)CC2	> 30 min
COc1ccc(C2=Nc3ccc(C)cc3C(c3ccccc3)N2CC(=O)NN)cc1 (centres undefined)	5.3 min
Cc1cccc(N2CCN(C(=O)Cn3ncc4c3-c3ccccc3OC4)CC2)c1C	2.76 min
COc1ccc(NC(=O)c2[nH]c(C)c(C(C)=O)c2C)cc1S(=O)(=O)N(C)C	> 30 min
Cc1ccc(-n2c(C)cc(-c3nnc4n3CCCCC4)c2C)cc1	1.62 min
COc1cc(-c2nc(Nc3ccc(F)c(F)c3)c3ccccc3n2)ccn1	> 30 min
CN1CCN(c2ccc(Nc3c4ccccc4nc4ccccc34)cc2)CC1	1.72 min
Cc1nc(NC(=O)C2CC(=O)N(c3n[nH]c4cc(Br)ccc34)C2)sc1C (centres undefined)	18.5 min
CC(=O)c1ccc(N[S+](=O)([O-])c2cccc(NC(=O)c3[nH]c(C)c(C(C)=O)c3C)c2)cc1	21 min
Cc1noc(C)c1-c1csc(N2CCC(C(N)=O)CC2)n1	> 30 min
O=C(Nc1ccc(-c2nc3cc(NC(=O)c4ccccc4Cl)ccc3o2)cc1)c1ccccc1Cl	> 30 min

Compound	half-life
O=C1NCc2cc(-c3cc4c(ccn4Cc4ccncc4)c(N4CCOCC4)n3)ccc21	13.4 min
c1ccc2c(N3CCOCC3)nc(-c3ccncc3)nc2c1	10 min
COc1cccc(Cn2c(=O)n(-c3cccc(Cl)c3C)c(=O)c3c4c(sc32)CN(C(C)=O)CC4)c1	3.17 min
COC(=O)CNC(=O)c1nc(-c2ccc([S+](C)(=O)[O-])cc2)c2ccccn12	> 30 min
Cc1cc(C)nc(NC(=S)N2CCN(c3ccc(C(F)(F)F)cc3[N+](=O)[O-])CC2)c1	> 30 min
Cc1ccc(S(=O)(=O)Nc2cnccc2C(=O)Nc2nc(-c3ccccc3)cs2)cc1	14.3 min
Cc1ccc(OCCn2c(CCNC(=O)c3ccccc3Br)nc3ccccc32)cc1	1.6 min
Cc1cc(-c2nnc3n2CCCCC3)c(C)n1-c1ccc(F)cc1	3.2 min
COc1ccc(S(=O)(=O)N(C(=O)C(C)C)c2ccc3oc(=O)sc3c2)cc1	2.2 min
CCCCOc1ccc(C(=O)N2CCC(c3n[nH]c(=O)n3-c3ccc(C)cc3)CC2)cc1	5.43 min
CC1=C[C@@H](CN2C(=O)C(C)=C(C)C2=O)[C@H](C(C)C)C[C@H]1Cc1nc2c(C)cccc2[nH]1	1.3 min
Cc1ccc([S+](=O)([O-])n2cc(Cc3ccc(-c4ccccc4)cc3)c3ccccc32)cc1	22 min
Cc1ccc(C(=O)NC2CCN(c3cnn(CC4CC4)c(=O)c3)CC2)cc1C	16.3 min
Cc1cccc(-n2nc(C)c3c2NC(=O)CSC3c2ccccc2Cl)c1 (centres undefined)	1.63 min
CCN(CC)S(=O)(=O)c1ccc(N2CCCC2)c(NS(=O)(=O)c2ccc(C)cc2)c1	1.17 min
Cc1noc(C)c1C(=O)N1CCC2(CCCN(C(c3ccccc3)c3ccccc3)C2)CC1	1.7 min
CC(=O)N1CCC(NC(=O)c2nc(-c3ccccc3)cc3[nH]ccc23)CC1	> 30 min
Cc1cc(C)c2nc(-c3ccccn3)cc(C(=O)Nc3ccc(S(=O)(=O)Nc4onc(C)c4C)cc3)c2c1	> 30 min
Cc1ccc(-n2ncc3c(NCCCn4ccnc4)ncnc32)cc1Cl	22.7 min
CC(C)c1ccc(S(=O)(=O)c2cnc(SCC(=O)Nc3ccc4c(c3)OCCO4)[nH]c2=O)cc1	3.84 min
COc1ccc(-n2nc(C3CCCN([S+](=O)([O-])c4cccc(C(F)(F)F)c4)C3)[nH]c2=O)cc1 (centres undefined)	6.33 min
CC1=C(C(=O)Nc2ccccc2C)C(c2ccccc2Br)N=C(Nc2nc3ccccc3o2)N1 (centres undefined)	12 min
Cc1cc(Br)ccc1NC(=O)C(NS(=O)(=O)c1cccs1)c1ccccc1 (centres undefined)	7.26 min
Cc1cc(-c2ccc(C)c(S(=O)(=O)NCC3CCN(Cc4ccc(F)cc4)CC3)c2)on1	5.49 min
